Test results taken from patent US9932329B2, “Benzimidazole derivatives as RLK and ITK inhibitors” (Principia Biopharma, Inc., priority 2014, dated 2018).
Counter-ions that a name gives are not always drawn. Like-named read-outs stand apart in the source and are kept apart here.

Assays:
RLK = RLK (Homo sapiens (Human), UniProt P42681); experiment: Inhibition of RLK enzymatic activity, Caliper assay; format: biochemical
NFAT-bla Jurkat cells = experiment: cells; conditions: Homo sapiens, read-out: TCR-induced NFAT IC50
human PBMCs = experiment: cells; conditions: PBMC, read-out: CD3/CD28-induced IL-2 IC50
[1] = system: cell types that do not express ITK and RLK; experiment: BioMap cell screening panel, cell types that do not express ITK and RLK; format: cell-based; conditions: data not shown
Description: (§1) FIG. 1 depicts the inhibition of intracellular expression of IL-17 in the presence of an ITK/RLK inhibitor (Tool Compound A) by a population of T-cells activated by anti-CD3/anti-CD-28. FIG. 2 depicts results from a BioMap® cell screening panel (performed by BioSeek, Inc., South San Francisco, Calif.) is a set of cell-based assays used to probe the cellular potency and selectivity of inhibitory compounds. A variety of cell culture and co-culture systems are stimulated with a range of molecules. Biomarker readouts are pathway activities in the culture systems. The biomarker readouts measured in each system are indicated along the x-axis. […] Three concentrations of Compound A were tested for the ability to modulate the various readouts. […] The TH2 system consists of primary human umbilical vein endothelial cells co-cultured with 14-day TH2 polarized CD4 T-cell blasts stimulated with TCR and IL-2.

murine Th17 cells = experiment: Differentiation of murine Th17 cells from CD4+ cells of TCR transgenic mice; format: cell-based, mouse; conditions: for IC50: Mus musculus, 72 h
Protocol: CD4+ cells from TCR transgenic mice (B10.A 5C.C7 TCR Tg (Rag-2^−/−)) were grown for three days in the presence of culture conditions that support the differentiation of the T cell population to Th17 cells (optimized concentrations of IL-6, TGF-β, IL-1β, IL-23, anti-mouse IL-2, anti-mouse IFN-γ, and anti-mouse IL-4 mAb). This was done in the presence of varying concentrations of Tool Compound A in the cell culture medium during the differentiation procedure. The cells were then activated with a combination of phorbol 12-myristate 13-acetate and ionomycin and the expression of the Th17 specific transcription factor RORγt and intracellular IL-17A was measured by flow cytometry.

human Th17 cells = experiment: Intracellular IL-17 expression by purified human Th17 cells after anti-CD3/anti-CD28 activation; format: cell-based; conditions: single dose of 500 nM, 1 h exposure, 12 h activation, FACS
Description: A population of T cells enhanced in Th17 cells was produced using the EasySep™ human Th17 enrichment kit from StemCell Technologies. […]

[2] = system: human PBMC and B cell co-culture; experiment: IL-17A secretion in PBMC-B cell co-cultures (BioMap BT system); format: cell-based
Description: as §1
(§2) Tool Compound A was tested in T cell co-cultures consisting of either a mixture of human primary peripheral blood mononuclear cells (PBMC) and B cells or human primary differentiated Th2 cells and human umbilical vein endothelial cells. The PBMC-B cell co-cultures were stimulated with TCR activators anti-CD3 and anti-CD28 and anti-IgM antibodies for 84 h to simulate B cell activation driven by T cell activation. Tool Compound A was tested at 10 μM, 1 μM, 100 nM and 10 nM. […]

[3] = system: human Th2 cell-HUVEC co-culture; experiment: IL-17A secretion in primary Th2 cell-HUVEC co-cultures (BioMap TH2 system); format: cell-based; conditions: stimulated by TCR activation and interleukin-2
Description: as §1, §2

[4] = ATP at Km (100 μM), 15 min pre-incubation, 3 h reaction

RLK, sequence (P42681 whole entry): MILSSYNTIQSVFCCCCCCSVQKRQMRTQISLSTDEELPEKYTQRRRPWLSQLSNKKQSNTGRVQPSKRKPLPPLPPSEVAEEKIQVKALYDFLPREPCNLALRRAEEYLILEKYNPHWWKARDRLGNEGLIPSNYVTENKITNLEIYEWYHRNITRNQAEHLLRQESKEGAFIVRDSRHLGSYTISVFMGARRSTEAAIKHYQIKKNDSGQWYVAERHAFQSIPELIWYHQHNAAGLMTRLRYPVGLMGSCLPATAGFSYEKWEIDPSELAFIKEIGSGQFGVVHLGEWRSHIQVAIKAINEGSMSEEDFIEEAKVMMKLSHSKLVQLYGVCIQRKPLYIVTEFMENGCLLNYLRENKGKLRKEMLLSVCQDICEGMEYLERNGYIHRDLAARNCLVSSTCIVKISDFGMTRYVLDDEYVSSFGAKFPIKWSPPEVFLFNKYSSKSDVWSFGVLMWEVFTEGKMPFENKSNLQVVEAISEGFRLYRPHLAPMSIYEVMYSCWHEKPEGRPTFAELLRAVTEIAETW

| SMILES | IC50 (RLK; [4]) | IC50 (NFAT-bla Jurkat cells) | IC50 (human PBMCs) | further results |
| --- | --- | --- | --- | --- |
| C=CC(=O)N1CCC[C@@H]1Cn1c(NC(=O)c2ccc(-c3cnco3)s2)nc2cc(CNCC3CC3)ccc21 [Example 9, (R)-N-(1-((1-acryloylpyrrolidin-2-yl)methyl)-5-(((cyclopropylmethyl)amino)methyl)-1H-benzo[d]imidazol-2-yl)-5-(oxazol-5-yl)thiophene-2-carboxamide] | 0.3 nM | 4 nM | 4 nM |  |
| C[C@H](NCc1ccc2c(c1)nc(NC(=O)c1ccc(-c3cnco3)s1)n2C[C@H]1CCCN1C(=O)C(C#N)=CC(C)(C)C)C(C)(C)C [Example 15, N-(1-(((R)-1-(2-cyano-4,4-dimethylpent-2-enoyl)pyrrolidin-2-yl)methyl)-5-((((S)-3,3-dimethyl-butan-2-yl)amino)methyl)-1H-benzo[d]imidazol-2-yl)-5-(oxazol-5-yl)thiophene-2-carboxamide] | 1.2 nM |  |  |  |
| C=CC(=O)N1CCC[C@@H]1Cn1c(NC(=O)c2ccc(-c3cnco3)s2)nc2cc(CN[C@@H](CO)C(C)(C)C)ccc21 [Example 11, N-(1-(((R)-1-acryloylpyrrolidin-2-yl)methyl)-5-((((R)-1-hydroxy-3,3-dimethylbutan-2-yl)-amino)-methyl)-1H-benzo[d]imidazol-2-yl)-5-(oxazol-5-yl)thiophene-2-carboxamide] | 0.5 nM |  |  |  |
| C=CC(=O)N1CCC[C@@H]1Cn1c(NC(=O)c2ccc(C(F)F)s2)nc2cc(CN[C@@H](C)C(C)(C)C)ccc21 [PRN694] |  |  |  | Inhibitory activity in cell types that do not express ITK and RLK [1]: essentially no inhibitory activity |
| C=CC(=O)N1CCC[C@@H]1Cn1c(NC(=O)c2ccc(-c3cnco3)s2)nc2cc(CN[C@@H](C)CO)ccc21 [Example 12, N-(1-(((R)-1-acryloylpyrrolidin-2-yl)methyl)-5-((((S)-1-hydroxypropan-2-yl)amino)methyl)-1H-benzo[d]imidazol-2-yl)-5-(oxazol-5-yl)thiophene-2-carboxamide] | 0.3 nM | 5 nM | 4 nM |  |
| CC(C)(C)C=C(C#N)C(=O)N1CCC[C@@H]1Cn1c(NC(=O)c2ccc(-c3cnco3)s2)nc2cc(CNCC3CC3)ccc21 [Example 2, (R)-N-(1-((1-(2-cyano-4,4-dimethylpent-2-enoyl)pyrrolidin-2-yl)methyl)-5-(((cyclopropyl-methyl)-amino)methyl)-1H-benzo[d]imidazol-2-yl)-5-(oxazol-5-yl)thiophene-2-carboxamide formate] |  | 536 nM | 81 nM |  |
| CC(C)(C)C=C(C#N)C(=O)N1CCC[C@@H]1Cn1c(NC(=O)c2ccc(-c3cnco3)s2)nc2cc(CO)ccc21 [Example 1, (R)-N-(1-((1-(2-cyano-4,4-dimethylpent-2-enoyl)pyrrolidin-2-yl)methyl)-5-(hydroxymethyl)-1H-benzo[d]imidazol-2-yl)-5-(oxazol-5-yl)thiophene-2-carboxamide] | 1.2 nM | 50 nM | 71 nM |  |
| COCC(C)NCc1ccc2c(c1)nc(NC(=O)c1ccc(-c3cnco3)s1)n2C[C@H]1CCCN1C(=O)C(C#N)=CC(C)(C)C (stereo partly drawn) [Example 7, N-1-(((R)-1-(2-cyano-4,4-dimethylpent-2-enoyl)pyrrolidin-2-yl)methyl)-5-((((R)-1-methoxypropan-2-yl)amino)methyl)-1H-benzo[d]imidazol-2-yl)-5-(oxazol-5-yl)-thiophene-2-carboxamide formate] | 2.1 nM | 101 nM | 109 nM |  |
| C=CC(=O)N1CCC[C@@H]1Cn1c(NC(=O)c2ccc(-c3cnco3)s2)nc2cc(CN[C@H](C)CO)ccc21 [Example 13, N-(1-(((R)-1-acryloylpyrrolidin-2-yl)methyl)-5-((((R)-1-hydroxypropan-2-yl)amino)methyl)-1H-benzo[d]imidazol-2-yl)-5-(oxazol-5-yl)thiophene-2-carboxamide] | 0.3 nM |  |  |  |
| C[C@H](NCc1ccc2c(c1)nc(NC(=O)c1ccc(C(F)F)s1)n2C[C@H]1CCCN1C(=O)C(C#N)=CC(C)(C)C)C(C)(C)C [Tool Compound A, N-(1-(((R)-1-(2-cyano-4,4-dimethylpent-2-enoyl)pyrrolidin-2-yl)methyl)-5-((((S)-3,3-dimethylbutan-2-yl)amino)methyl)-1H-benzo[d]imidazol-2-yl)-5-(difluoromethyl)thiophene-2-carboxamide] |  |  |  | IC50 (RLK): 1 nM; IC50 (murine Th17 cells; three days under Th17 conditions, PMA/ionomycin, flow cytometry, read-out: Midpoint of dose response - Th17: Intracellular cytokine expression (IL-17)): < 25 nM; IC50 (murine Th17 cells; three days under Th17 conditions, PMA/ionomycin, flow cytometry, read-out: Midpoint of dose response - Th17: Transcription factor expression (RORγt)): ~25 nM; IC50 (murine Th17 cells; three days under Th17 differentiation conditions, read-out: Midpoint of dose response - Th17: Proliferation): < 25 nM; Concentration that blocks expression of Th17 differentiation markers (RORγt and IL-17A) (murine Th17 cells; cultures polarizing murine T cells into Th17): ≤ 25 nM; TCR-induced intracellular expression of IL-17 (human Th17 cells): completely blocked; IL-17A secretion into culture supernatant ([2]; 10 μM, 1 μM, 100 nM and 10 nM, anti-CD3, anti-CD28 and anti-IgM for 84 h): inhibited in a dose dependent manner; Release of soluble proinflammatory cytokines IL17A, IL17F and TNFα by activated T cells ([2]; BioMap panel, three concentrations): inhibits release; IL-17A secretion [3]: inhibited IL-17A secretion in a dose dependent manner |
| C=CC(=O)N1CCC[C@@H]1Cn1c(NC(=O)c2ccc(-c3cnco3)s2)nc2cc(CN[C@H](CO)C(C)(C)C)ccc21 [Example 10, N-(1-(((R)-1-acryloylpyrrolidin-2-yl)methyl)-5-((((S)-1-hydroxy-3,3-dimethylbutan-2-yl)-amino)methyl)-1H-benzo[d]imidazol-2-yl)-5-(oxazol-5-yl)thiophene-2-carboxamide] | 0.2 nM |  |  |  |
